In data set [1] the test system is SKOV3 CR xenograft tumors. The data set is described as follows: SKOV3 CR xenograft tumors in nude mice. The data set is classed as in vivo. Here is the method:
FIG. 26 are line graphs showing the growth curves of tumors (A) and Kaplan-Meier survival curves (C) from mice treated with vehicle, LY2784544 (15 mg/kg/day intraperitoneally), cisplatin (8 mg/kg/week intraperitoneally), or LY2784544 plus cisplatin (combo) for 2 weeks. A photograph of the representative tumor from mice in each treatment arm is also shown (B). Data in (A) are represented as mean±SEM, n=6 mice/group. *p<0.05, **p<0.01, ***p<0.001. Data in (B) are represented as n=6 mice/group. *p<0.05, **p<0.01. Ruler scale in (B) is in cm.
FIG. 27 is an illustration showing the IHC and TUNEL staining of tumors from mice in each treatment arm sacrificed after 4 days of treatment. n=3 mice/group. Bar=50 μm.
(§1) To determine whether LY2784544 is able to sensitize SKOV3 CR cells to cisplatin in vivo, SKOV3 CR cells were implanted subcutaneously into nude mice. When the tumor volume reached 100 mm^3, mice were randomized to receive intraperitoneal injections of vehicle, cisplatin (8 mg/kg on days 1 and 8), LY2784544 (15 mg/kg/d from day 1 to day 14), or the combination of cisplatin and LY2784544. […] To evaluate whether this in vivo tumor suppression was through inhibition of the JAK2 pathway and increased apoptosis, the tumor samples four days after full dosage treatment were collected. […] Quantification of phosphorylated JAK2 and TUNEL staining in tumor tissues treated was performed (FIG. 28). […] To confirm the selectivity of LY2784544, an in vitro kinase profiling was conducted to examine the interaction of LY2784544 with more than 450 human kinases.

The target of another data set is JAK2 (Homo sapiens, UniProt O60674). Briefly: in vitro kinase profiling, more than 450 human kinases. Conditions: data not shown. The class given is binding. Here is the method: as §1
Chain of JAK2 (O60674 whole entry): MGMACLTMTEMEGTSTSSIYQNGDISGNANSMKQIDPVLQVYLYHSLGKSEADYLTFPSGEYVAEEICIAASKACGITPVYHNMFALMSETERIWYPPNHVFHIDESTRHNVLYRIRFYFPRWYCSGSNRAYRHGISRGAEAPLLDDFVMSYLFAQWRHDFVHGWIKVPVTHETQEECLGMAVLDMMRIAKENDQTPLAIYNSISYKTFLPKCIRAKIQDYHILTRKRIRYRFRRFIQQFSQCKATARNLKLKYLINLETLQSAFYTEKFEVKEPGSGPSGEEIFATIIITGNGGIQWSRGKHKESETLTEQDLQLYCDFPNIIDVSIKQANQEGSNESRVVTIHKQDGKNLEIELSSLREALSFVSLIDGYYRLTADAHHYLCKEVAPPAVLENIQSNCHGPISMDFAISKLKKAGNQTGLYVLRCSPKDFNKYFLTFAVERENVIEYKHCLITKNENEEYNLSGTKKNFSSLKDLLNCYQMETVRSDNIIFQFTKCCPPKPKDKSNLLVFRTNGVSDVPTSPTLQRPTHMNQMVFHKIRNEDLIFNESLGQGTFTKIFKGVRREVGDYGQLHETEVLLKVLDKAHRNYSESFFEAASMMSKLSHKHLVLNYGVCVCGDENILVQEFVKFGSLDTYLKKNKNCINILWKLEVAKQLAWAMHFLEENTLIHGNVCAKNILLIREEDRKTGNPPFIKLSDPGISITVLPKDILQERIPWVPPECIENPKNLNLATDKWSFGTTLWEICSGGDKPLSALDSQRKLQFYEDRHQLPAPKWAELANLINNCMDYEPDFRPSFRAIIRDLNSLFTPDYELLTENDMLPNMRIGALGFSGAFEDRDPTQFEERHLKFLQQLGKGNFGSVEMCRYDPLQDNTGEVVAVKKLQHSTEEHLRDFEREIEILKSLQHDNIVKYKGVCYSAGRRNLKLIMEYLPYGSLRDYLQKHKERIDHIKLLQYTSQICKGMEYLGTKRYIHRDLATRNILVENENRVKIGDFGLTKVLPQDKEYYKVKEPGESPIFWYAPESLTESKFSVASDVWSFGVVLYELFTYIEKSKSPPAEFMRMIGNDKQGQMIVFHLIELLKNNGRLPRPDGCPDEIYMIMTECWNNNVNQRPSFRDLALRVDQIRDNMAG
The subject of another data set is IGROV1 cells. Briefly: cell proliferation assay, IGROV1 parental cells. The class given is cell-based. Conditions: 5 days. An excerpt:
FIG. 60 is a line graph showing the proliferation of IGROV1 parental and IGROV1 CR cells treated with increasing concentrations of cisplatin for 5 days (left). Data are represented as mean±SD from three independent experiments performed in triplicate. Indicated IC50 values represent the mean of two independent experiments performed in triplicate.
Using a similar approach as described in FIG. 1, another cisplatin resistant ovarian cancer cell line IGROV1 CR was raised from its cisplatin sensitive parental cell IGROV1 cells. […] The cell proliferation of IGROV1 CR cells treated with cisplatin, LY2784544 or both LY2784544 and cisplatin was examined.

Another data set deals with PEO1 cells. Briefly: cell proliferation assay, PEO1 cells. Conditions: 5 days. The data set is classed as cell-based. An excerpt:
FIG. 63 is a line graph showing the proliferation of PEO1 and PEO4 cells treated with increasing concentrations of cisplatin for 5 days. Data are represented as mean±SD from three independent experiments performed in triplicate. Indicated IC50 values represent the mean of […] independent experiments performed in triplicate.
For ovarian cancer, recurrence more than 12 months after initial chemotherapy was considered as platinum sensitive. PEO4 was derived from the patient 10 months later when they had progressive disease and had become cisplatin resistant.

Data set [2] deals with reactive oxygen species (ROS). Briefly: ROS production (CellROX Orange reagent). The class given is cell-based. As to conditions: SKOV3 cells, YCG063 20 μM, cisplatin 1 μM, 24 hr. The protocol: FIG. 69 are bar graphs ((A)-(C) and (E)-(F)) and illustrations ((D) and (G)) showing that reactive oxygen species (ROS) induces IL-11 expression. (A) is a bar graph showing quantification of ROS production in SKOV3 and SKOV3 CR cells. Data are represented as means±SD from three independent experiments. **p<0.01. Scale bar, 100 μm. (B) is a bar graph showing quantification of ROS production in SKOV3 CR cells after treatment with the ROS inhibitor YCG063 at 20 μM for 24 hr. Data are represented as means±SD from three independent experiments. ***p<0.001. (C) is a bar graph showing IL-11 levels measured by ELISA in the medium of SKOV3 CR cells treated with YCG063 at 20 μM for 24 hr. Data are represented as mean±SD from three independent experiments performed in triplicate. ***p<0.001. […] (E) is a bar graph showing quantification of ROS production in SKOV3 cells after treated with the ROS inhibitor YCG063 (20 μM), cisplatin (1 μM), or both for 24 hr. […] (F) is a bar graph showing IL-11 levels measured by ELISA in SKOV3 cells treated with YCG063 (20 μM), cisplatin (1 μM) or both for 24 hr. […]
DNA damage induces generation of reactive oxygen species (ROS). […] ROS was detected with a live cell-permeable, fluorophore CellROX Orange reagent (Thermo Fisher Scientific) according to the manufacturer's instructions. […] ROS intensity was analyzed using ImageJ (NIH) software. […]

The mark [3] stands for this setting: tumor samples four days after full dosage treatment.

Here are results for 2 molecules from patent publication US20200031920A1, “Combination Therapy for Treating Cancer” (The George Washington University, priority 2017, published 2020).

Turning to `Cc1cc(Nc2cc(CN3CCOCC3)c3nc(C)c(Cc4ccc(Cl)cc4F)n3n2)n[nH]1` [LY2784544], in data set [1] (LY2784544 15 mg/kg/d i.p. day 1-14 plus cisplatin 8 mg/kg i.p. days 1 and 8), the “tumor growth, combination versus vehicle or single agents” value is given as “significantly reduced the tumor growth”. Besides, the “survival of mice, combination” value in data set [1] (LY2784544 15 mg/kg/d i.p. plus cisplatin 8 mg/kg i.p. days 1 and 8) is given as “improved survival of the mice”. In data set [1] (any treated groups (cisplatin, LY2784544, combination), 4 days after final treatment), the “histopathology of liver and kidney” value was “No histopathological changes and lesions in liver and kidney”. The “mouse body weight, combined treatment with cisplatin” value in data set [1] (during treatment) is “no significant reduction in mouse body weight”. For the same molecule, in data set [1] (setting [3]), the “apoptosis in tumors (TUNEL), combined with cisplatin” value is given as “significantly induced the apoptosis” and the “phosphorylation of JAK2 in tumors (IHC)” value is reported as “efficiently reduce the phosphorylation of JAK2 in vivo”. In addition, at JAK2, the “binding selectivity among kinases” value was “stronger binding to JAK2 than JAK1 and TYK2”.

Broadly, the IC50 is the midpoint of a concentration-inhibition curve. For `N.N.[Cl][Pt][Cl]` [cisplatin], the IC50 in the data set with IGROV1 cells stood at 510 nM; in the data set on PEO1 cells it was 320 nM. Besides, in data set [2], the ROS production entry was “activated ROS production”.
